Reference: patent publication US10703745B2, “Acyl phosphonamidates and acyl benzylamines that are Bcl family antagonists for use in clinical management of conditions caused or mediated by senescent cells and for treating cancer” (Unity Biotechnology, Inc., priority 2018, dated 2020)
Values belong to the compound of their own block, whether it stands above or below them.

Tests used:
[1] = tested on: 3MR or INK-ATTAC mice exposed to cigarette smoke; assay: Cigarette smoke COPD model, oxygen saturation by pulse oximeter; format: in vivo, mouse; details: after two months of cigarette smoke exposure, compared with untreated controls
From the text: The mice used in this study include the 3MR strain, described in US 2017/0027139 A1 and in Demaria et al., Dev Cell. 2014 Dec. 22; 31(6): 722-733. The 3MR mouse has a transgene encoding thymidine kinase that converts the prodrug ganciclovir (GCV) to a compound that is lethal to cells. The enzyme in the transgene is placed under control of the p16 promoter, which causes it to be specifically expressed in senescent cells. Treatment of the mice with GCV eliminates senescent cells.
Other mice used in this study include the INK-ATTAC strain, described in US 2015/0296755 A1 and in Baker et al., Nature 2011 Nov. 2; 479(7372):232-236. The INK-ATTAC mouse has a transgene encoding switchable caspase 8 under control of the p16 promoter. The caspase 8 can be activated by treating the mice with the switch compound AP20187, whereupon the caspase 8 directly induces apoptosis in senescent cells, eliminating them from the mouse.
To conduct the experiment, six-week-old 3MR (n=35) or INK-ATTAC (n=35) mice were chronically exposed to cigarette smoke generated from a Teague TE-10 system, an automatically-controlled cigarette smoking machine that produces a combination of side-stream and mainstream cigarette smoke in a chamber, which is transported to a collecting and mixing chamber where varying amounts of air is mixed with the smoke mixture. The COPD protocol was adapted from the COPD core facility at Johns Hopkins University (Rangasamy et al., 2004, J. Clin. Invest. 114:1248-1259; Yao et al., 2012, J. Clin. Invest. 122:2032-2045).
Mice received a total of 6 hours of cigarette smoke exposure per day, 5 days a week for 6 months. Each lighted cigarette (3R4F research cigarettes containing 10.9 mg of total particulate matter (TPM), 9.4 mg of tar, and 0.726 mg of nicotine, and 11.9 mg carbon monoxide per cigarette [University of Kentucky, Lexington, Ky.]) was puffed for 2 seconds and once every minute for a total of 8 puffs, with the flow rate of 1.05 L/min, to provide a standard puff of 35 cm3. The smoke machine was adjusted to produce a mixture of side stream smoke (89%) and mainstream smoke (11%) by smoldering 2 cigarettes at one time. The smoke chamber atmosphere was monitored for total suspended particulates (80-120 mg/m3) and carbon monoxide (350 ppm). […]
After two months of cigarette smoke (CS) exposure, lung function was assessed by monitoring oxygen saturation using the MouseSTAT PhysioSuite™ pulse oximeter (Kent Scientific). […] Mice were monitored for 30 seconds and the average peripheral capillary oxygen saturation (SpO2) measurement over this duration was calculated.

[2] = tested on: C57BL/6J mice with surgery-induced osteoarthritis; assay: Osteoarthritis model (ACL surgery): qRT-PCR of senescence markers and SASP factors in operated joints; format: in vivo, mouse; details: 5.8 μg per operated knee intra-articular, 4 weeks post-surgery
Method: (§1) The model was implemented as follows. C57BL/6J mice underwent surgery to cut the anterior cruciate ligament of one rear limb to induce osteoarthritis in the joint of that limb. During week 3 and week 4 post-surgery, the mice were treated with 5.8 μg of Nutlin-3A (n=7) per operated knee by intra-articular injection, q.o.d. for 2 weeks. At the end of 4 weeks post-surgery, joints of the mice were monitored for presence of senescent cells, assessed for function, monitored for markers of inflammation, and underwent histological assessment.
Two control groups of mice were included in the studies performed: one group comprising C57BL/6J or 3MR mice that had undergone a sham surgery (n=3) (i.e., surgical procedures followed except for cutting the ACL) and intra-articular injections of vehicle parallel to the GCV (ganciclovir) treated group; and one group comprising C57BL/6J or 3MR mice that had undergone an ACL surgery and received intra-articular injections of vehicle (n=5) parallel to the GCV-treated group. RNA from the operated joints of mice from the Nutlin-3A treated mice was analyzed for expression of SASP factors (mmp3, IL-6) and senescence markers (p16). qRT-PCR was performed to detect mRNA levels.

[3] = tested on: C57BL/6J mice with surgery-induced osteoarthritis; assay: Osteoarthritis model: weight bearing test of hind limbs; format: in vivo, mouse; details: 4 weeks post-surgery
Method: as §1
Function of the limbs was assessed 4 weeks post-surgery by a weight bearing test to determine which leg the mice favored. The mice were allowed to acclimate to the chamber on at least three occasions prior to taking measurements. Mice were maneuvered inside the chamber to stand with one hind paw on each scale. The weight that was placed on each hind limb was measured over a three second period. At least three separate measurements were made for each animal at each time point. The results were expressed as the percentage of the weight placed on the operated limb versus the contralateral unoperated limb.

[4] = tested on: C57BL/6J mice with surgery-induced osteoarthritis; assay: Osteoarthritis model: histopathology of joint tissue; format: in vivo, mouse; details: ACL surgery, 4 weeks post-surgery
Method: as §1

[5] = tested on: LDLR-/- mice fed a high fat diet; assay: Atherosclerosis model: RT-PCR of SASP factors and senescent cell markers in aortic arch; format: in vivo, mouse; details: 25 mg/kg intraperitoneally, HFD
Method: Two groups of LDLR−/− mice (10 weeks) are fed a high fat diet (HFD) (Harlan Teklad TD.88137) having 42% calories from fat, beginning at Week 0 and throughout the study. Two groups of LDLR−/− mice (10 weeks) are fed normal chow (−HFD). From weeks 0-2, one group of HFD mice and −HFD mice are treated with Nutlin-3A (25 mg/kg, intraperitoneally). One treatment cycle is 14 days treatment, 14 days off. Vehicle is administered to one group of HFD mice and one group of −HFD mice. At week 4 (timepoint 1), one group of mice are sacrificed and to assess presence of senescent cells in the plaques. For the some of the remaining mice, Nutlin-3A and vehicle administration is repeated from weeks 4-6. […]
At the end of timepoint 1, LDLR−/− mice fed a HFD and treated with Nutlin-3A or vehicle were sacrificed (n=3, all groups), and the aortic arches were dissected for RT-PCR analysis of SASP factors and senescent cell markers. Values were normalized to GAPDH and expressed as fold-change versus age-matched, vehicle-treated LDLR−/− mice on a normal diet.
At the end of timepoint 2, LDLR−/− mice fed a HFD and treated with Nutlin-3A or vehicle (n=3 for all groups) were sacrificed, and aortic arches were dissected for RT-PCR analysis of SASP factors and senescent cell markers. Values were normalized to GAPDH and expressed as fold-change versus age-matched, vehicle-treated LDLR−/− mice on a normal diet.

[6] = tested on: LDLR-/- mice fed a high fat diet; assay: Atherosclerosis model: Sudan IV staining of aortic plaques; format: in vivo, mouse; details: timepoint 3 (week 12), 25 mg/kg intraperitoneally, HFD
Method: (§2) Two groups of LDLR−/− mice (10 weeks) are fed a high fat diet (HFD) (Harlan Teklad TD.88137) having 42% calories from fat, beginning at Week 0 and throughout the study. Two groups of LDLR−/− mice (10 weeks) are fed normal chow (−HFD). From weeks 0-2, one group of HFD mice and −HFD mice are treated with Nutlin-3A (25 mg/kg, intraperitoneally). One treatment cycle is 14 days treatment, 14 days off. Vehicle is administered to one group of HFD mice and one group of −HFD mice. At week 4 (timepoint 1), one group of mice are sacrificed and to assess presence of senescent cells in the plaques. For the some of the remaining mice, Nutlin-3A and vehicle administration is repeated from weeks 4-6. At week 8 (timepoint 2), the mice are sacrificed and to assess presence of senescent cells in the plaques. The remaining mice are treated with Nutlin-3A or vehicle from weeks 8-10. At week 12 (timepoint 3), the mice are sacrificed and to assess the level of plaque and the number of senescent cells in the plaques.
(§3) At the end of timepoint 3, LDLR−/− mice fed a HFD and treated with Nutlin-3A or vehicle (n=3 for all groups) were sacrificed, and aortas were dissected and stained with Sudan IV to detect the presence of lipid. Body composition of the mice was analyzed by MRI, and circulating blood cells were counted by Hemavet™.

[7] = tested on: LDLR-/- mice fed a high fat diet; assay: Atherosclerosis model: body composition by MRI and circulating blood cell counts; format: in vivo, mouse; details: timepoint 3
Method: as §2, §3

[8] = tested on: primary cells from patients with B-cell malignancies; details: in vitro; cited from earlier work
cancer cells = details: cited from earlier work

Structure (SMILES): Nc1nc(O)c2ncn(COC(CO)CO)c2n1 [ganciclovir]
SpO2 levels [1]: statistically significant increases

lymphocyte counts versus vehicle treated mice [7]: equivalent
platelet counts versus vehicle treated mice [7]: equivalent
Structure (SMILES): COc1ccc(C2=N[C@@H](c3ccc(Cl)cc3)[C@@H](c3ccc(Cl)cc3)N2C(=O)N2CCNC(=O)C2)c(OC(C)C)c1 [Nutlin-3A]
expression of IL-6 in the tissue ([2]; q.o.d. for 2 weeks, mRNA): reduced the expression back to below the level of the controls
expression of MMP13 in the tissue ([2]; q.o.d. for 2 weeks, mRNA): reduced the expression back to below the level of the controls
expression of p16 in the tissue ([2]; q.o.d. for 2 weeks, mRNA): reduced the expression back to below the level of the controls
senescent cells in the joint [2]: cleared senescent cells from the joint
weight placed on operated limb versus contralateral unoperated limb (favoring of unoperated hind limb) [3]: abrogated this effect
destruction of the proteoglycan layer (histopathology) [4]: completely abrogated this effect
SpO2 levels [1]: statistically significant increases
expression of SASP factors and senescent cell markers MMP3, MMP13, PAI1, p21, IGFBP2, IL-1A, IL-1B in aortic arch ([5]; timepoint 1 (week 4), one treatment cycle): reduced expression of several SASP factors and senescent cell markers
expression of SASP factors and senescent cell markers in aortic arch ([5]; timepoint 2 (week 8), multiple treatment cycles): reduced expression of most markers
reduction of surface area covered by plaques in the descending aorta [6]: about 45%
body fat composition ([7]; mice fed the high fat diet): decreased
mass ([7]; mice fed the high fat diet): decreased

Structure (SMILES): CC1(C)CCC(c2ccc(Cl)cc2)=C(CN2CCN(c3ccc(C(=O)NS(=O)(=O)c4ccc(N[C@H](CCN5CCOCC5)CSc5ccccc5)c(S(=O)(=O)C(F)(F)F)c4)cc3)CC2)C1 [ABT-263, Navitoclax]
SpO2 levels [1]: statistically significant increases

Structure (SMILES): CC[C@H](C(=O)N1CCCC[C@H]1C(=O)O[C@H](CCc1ccc(OC)c(OC)c1)c1cccc(OCC(=O)NCC(CNC(=O)COc2cccc([C@@H](CCc3ccc(OC)c(OC)c3)OC(=O)[C@@H]3CCCCN3C(=O)[C@@H](CC)c3cc(OC)c(OC)c(OC)c3)c2)CN(C)C)c1)c1cc(OC)c(OC)c(OC)c1 [AP2018]
SpO2 levels [1]: statistically significant increases

Structure (SMILES): CN(C)CC[C@H](CSc1ccccc1)Nc1ccc(S(=O)(=O)NC(=O)c2ccc(N3CCN(Cc4ccccc4-c4ccc(Cl)cc4)CC3)cc2)cc1[N+](=O)[O-] [ABT-737]
sensitivity of primary cells from patients with B-cell malignancies [8]: sensitive
dose-limiting toxicity in human patients (cancer cells): dose-limiting thrombocytopenia
efficacy against cancer cells in human patients (cancer cells): effective against some types of cancer cells
